{"source": "paper PMC6492180", "about": "“Cytome micronucleus assays with a metabolically competent human derived liver cell line (Huh6): A promising approach for routine testing of chemicals?” (Environmental and Molecular Mutagenesis, 2018)", "key": {"[1]": {"test_system": "HepG2", "conditions": "HepG2, cited from earlier work"}, "[2]": {"test_system": "Huh6 cells", "experimental": "All experiments were performed in duplicate.\n3.8–4.0 × 10^5 cells per well were seeded into 6‐well plates with 3 mL of RPMI (4% FBS) for 12 hr, then dilutions of stock solutions of the diagnostic mutagens were added for different time periods (4, 24, and 48 hr). In each experimental series solvent controls were included. Subsequently, the cells were washed twice with 3.0 mL medium. […] Finally, the cells were washed and trypsinised. Afterwards the cells were washed twice with 8.0 mL RPMI and collected on slides by cytocentrifugation (600 rpm, 5 min). The slides were air dried, fixed, and stained with DiffQuick according to the instructions of the manufacturer. For each experimental point, two cultures were tested per dose. From each culture ≥1,000 BN cells were evaluated under 400‐fold magnification (Nikon Photophot‐FXA, Tokyo, Japan). At least 2,000 binucleated cells were analyzed per dose for the determination of the different nuclear anomalies (MN, NBuds, and NBs).\nThe experiments were performed as described in the previous chapter. The cells were exposed only to one dose of the different mutagens and were cultivated after the seeding in 6‐well plates which contained 4% or 10% FBS in RPMI, respectively.\nData were evaluated by generalized linear model with Poisson counts. Chi‐square tests for overdispersion were applied. […] P values ≤0.05 were considered statistically significant.\n^150-60 000 cells were seeded in 6 well plates with 3 ml RPMI (4% FBS), subsequently different solutions of the test compound (dissolved in medium) were added. After treatment for different time periods, the cells was washed and processed as described in the Material and Method section. […] From each culture 1000 binoculated cells were evaluated. BN-MN – number of micronucleated cells; MN - total number of micronuclei; CBPI – cytokinesis-block proliferation index\n^1The experiments were conducted essentially as described in the footnote of Table S1A-I. *p≤0.05"}, "[3]": {"test_system": "HepaRG", "conditions": "HepaRG; ref Josse et al., 2012; cited from earlier work"}, "[4]": {"conditions": "ref IARC (2018); cited from earlier work"}, "[5]": {"test_system": "Human lymphocytes", "conditions": "Human lymphocytes, cited from earlier work"}, "[6]": {"conditions": "10% FBS, 24 hr treatment, 10 µg/ml"}}, "note": "Read-outs that look alike come from different tables or passages of the source. Marks after values point to notes of the source that are not given here.", "data": [{"compound": "COS(C)(=O)=O", "note": "[MMS, Methyl methanesulfonate]", "values": [{"measurement": "MN induction after 28 hr compared with 1 hr exposure (in words)", "setting": "[1]; ref Natarajan and Darroudi (1991)", "value": "less pronounced effect"}, {"measurement": "Lowest effective concentration (LOEC) in micronucleus experiments", "setting": "[1]; ref Valentin‐Severin et al., 2003", "value": "11.0 (Valentin‐Severin et al., 2003) μg/mL"}, {"measurement": "MN effects after 24 hr (or longer) compared with 4 hr treatment (in words)", "setting": "[2]; 4% FBS", "value": "similar"}, {"measurement": "BN-MN (number of micronucleated cells)", "setting": "[2]; 4% FBS, 4hrs, 6 µg/ml", "value": "20.5 ± 3.5 ‰"}, {"measurement": "Bridges", "setting": "[2]; 4% FBS, 4hrs, 6 µg/ml", "value": "0.5 ± 0.7 ‰"}, {"measurement": "Buds", "setting": "[2]; 4% FBS, 4hrs, 6 µg/ml", "value": "20.5 ± 3.5 ‰"}, {"measurement": "CBPI", "setting": "[2]; 4% FBS, 4hrs, 6 µg/ml", "value": "1.9 ± 0.1"}, {"measurement": "MN (total number of micronuclei)", "setting": "[2]; 4% FBS, 4hrs, 6 µg/ml", "value": "21.0 ± 4.2 ‰"}, {"measurement": "BN-MN (number of micronucleated cells)", "setting": "[2]; 4% FBS, 4hrs, 10 µg/ml", "value": "32.5 ± 3.5* ‰"}, {"measurement": "Bridges", "setting": "[2]; 4% FBS, 4hrs, 10 µg/ml", "value": "3.5 ± 0.7 ‰"}, {"measurement": "Buds", "setting": "[2]; 4% FBS, 4hrs, 10 µg/ml", "value": "37.0 ± 4.2* ‰"}, {"measurement": "CBPI", "setting": "[2]; 4% FBS, 4hrs, 10 µg/ml", "value": "1.7 ± 0.1"}, {"measurement": "MN (total number of micronuclei)", "setting": "[2]; 4% FBS, 4hrs, 10 µg/ml", "value": "39.5 ± 0.7* ‰"}, {"measurement": "BN-MN (number of micronucleated cells)", "setting": "[2]; 4% FBS, 4hrs, 40 µg/ml", "value": "40.0 ± 7.1* ‰"}, {"measurement": "Bridges", "setting": "[2]; 4% FBS, 4hrs, 40 µg/ml", "value": "3.5 ± 2.1 ‰"}, {"measurement": "Buds", "setting": "[2]; 4% FBS, 4hrs, 40 µg/ml", "value": "42.0 ± 17.0* ‰"}, {"measurement": "CBPI", "setting": "[2]; 4% FBS, 4hrs, 40 µg/ml", "value": "1.5 ± 0.1"}, {"measurement": "MN (total number of micronuclei)", "setting": "[2]; 4% FBS, 4hrs, 40 µg/ml", "value": "50.5 ± 7.8 ‰"}, {"measurement": "BN-MN (number of micronucleated cells)", "setting": "[2]; 4% FBS, 24hrs, 0.4 µg/ml", "value": "16.5 ± 0.7 ‰"}, {"measurement": "Bridges", "setting": "[2]; 4% FBS, 24hrs, 0.4 µg/ml", "value": "0.5 ± 0.7 ‰"}, {"measurement": "Buds", "setting": "[2]; 4% FBS, 24hrs, 0.4 µg/ml", "value": "9.5 ± 0.7 ‰"}, {"measurement": "CBPI", "setting": "[2]; 4% FBS, 24hrs, 0.4 µg/ml", "value": "1.7 ± 0.0"}, {"measurement": "MN (total number of micronuclei)", "setting": "[2]; 4% FBS, 24hrs, 0.4 µg/ml", "value": "16.5 ± 0.7 ‰"}, {"measurement": "BN-MN (number of micronucleated cells)", "setting": "[2]; 4% FBS, 24hrs, 2 µg/ml", "value": "21.5 ± 2.1 ‰"}, {"measurement": "Bridges", "setting": "[2]; 4% FBS, 24hrs, 2 µg/ml", "value": "3.0 ± 0.0 ‰"}, {"measurement": "Buds", "setting": "[2]; 4% FBS, 24hrs, 2 µg/ml", "value": "17.5 ± 0.7 ‰"}, {"measurement": "CBPI", "setting": "[2]; 4% FBS, 24hrs, 2 µg/ml", "value": "1.7 ± 0.0"}, {"measurement": "MN (total number of micronuclei)", "setting": "[2]; 4% FBS, 24hrs, 2 µg/ml", "value": "23.5 ± 2.1 ‰"}, {"measurement": "BN-MN (number of micronucleated cells)", "setting": "[2]; 4% FBS, 24hrs, 10 µg/ml", "value": "29.5 ± 2.1* ‰"}, {"measurement": "Bridges", "setting": "[2]; 4% FBS, 24hrs, 10 µg/ml", "value": "8.0 ± 1.4 ‰"}, {"measurement": "Buds", "setting": "[2]; 4% FBS, 24hrs, 10 µg/ml", "value": "27.0 ± 1.4* ‰"}, {"measurement": "CBPI", "setting": "[2]; 4% FBS, 24hrs, 10 µg/ml", "value": "1.6 ± 0.0"}, {"measurement": "MN (total number of micronuclei)", "setting": "[2]; 4% FBS, 24hrs, 10 µg/ml", "value": "31.0 ± 2.8* ‰"}, {"measurement": "Change of MN rates after 48 hr treatment (in words)", "setting": "[2]; 4% FBS, 48 hr", "value": "slight decrease"}, {"measurement": "BN-MN (number of micronucleated cells)", "setting": "[2]; 4% FBS, 48hrs, 0.4 µg/ml", "value": "18.0 ± 1.4 ‰"}, {"measurement": "Bridges", "setting": "[2]; 4% FBS, 48hrs, 0.4 µg/ml", "value": "0.5 ± 0.7 ‰"}, {"measurement": "Buds", "setting": "[2]; 4% FBS, 48hrs, 0.4 µg/ml", "value": "19.0 ± 1.4 ‰"}, {"measurement": "CBPI", "setting": "[2]; 4% FBS, 48hrs, 0.4 µg/ml", "value": "1.8 ± 0.0"}, {"measurement": "MN (total number of micronuclei)", "setting": "[2]; 4% FBS, 48hrs, 0.4 µg/ml", "value": "20.0 ± 1.4 ‰"}, {"measurement": "BN-MN (number of micronucleated cells)", "setting": "[2]; 4% FBS, 48hrs, 2 µg/ml", "value": "20.5 ± 0.7 ‰"}, {"measurement": "Bridges", "setting": "[2]; 4% FBS, 48hrs, 2 µg/ml", "value": "2.5 ± 0.7 ‰"}, {"measurement": "Buds", "setting": "[2]; 4% FBS, 48hrs, 2 µg/ml", "value": "19.5 ± 0.7 ‰"}, {"measurement": "CBPI", "setting": "[2]; 4% FBS, 48hrs, 2 µg/ml", "value": "1.9 ± 0.0"}, {"measurement": "MN (total number of micronuclei)", "setting": "[2]; 4% FBS, 48hrs, 2 µg/ml", "value": "23.5 ± 0.7 ‰"}, {"measurement": "BN-MN (number of micronucleated cells)", "setting": "[2]; 4% FBS, 48hrs, 10 µg/ml", "value": "24.0 ± 2.8 ‰"}, {"measurement": "Bridges", "setting": "[2]; 4% FBS, 48hrs, 10 µg/ml", "value": "0.5 ± 0.7 ‰"}, {"measurement": "Buds", "setting": "[2]; 4% FBS, 48hrs, 10 µg/ml", "value": "27.0 ± 1.4 ‰"}, {"measurement": "CBPI", "setting": "[2]; 4% FBS, 48hrs, 10 µg/ml", "value": "1.7 ± 0.0"}, {"measurement": "MN (total number of micronuclei)", "setting": "[2]; 4% FBS, 48hrs, 10 µg/ml", "value": "25.5 ± 3.5 ‰"}, {"measurement": "BN-MN (number of micronucleated cells)", "setting": "[2]; [6]", "value": "27.5 ± 2.1*"}, {"measurement": "Bridges", "setting": "[2]; [6]", "value": "0.0 ± 0.0"}, {"measurement": "Buds", "setting": "[2]; [6]", "value": "20.0 ± 2.8"}, {"measurement": "CBPI", "setting": "[2]; [6]", "value": "1.8 ± 0.0"}, {"measurement": "MN (total number of micronuclei)", "setting": "[2]; [6]", "value": "30.0 ± 1.4*"}, {"measurement": "MN frequencies with 10% serum compared with 4% serum (in words)", "setting": "[2]; 24 hr treatment", "value": "not increased"}, {"measurement": "Lowest effective concentration (LOEC) in micronucleus experiments", "setting": "[2]; Huh6", "value": 10.0, "unit": "µg/mL"}, {"measurement": "Lowest effective concentration (LOEC) in micronucleus experiments", "setting": "[3]", "value": "9.9 (Josse et al., 2012) μg/mL"}, {"measurement": "MN formation with the longer exposure time, treatment for 1 or 7 days (in words)", "setting": "[3]", "value": "no such effects"}, {"measurement": "IARC classification", "setting": "[4]", "value": "Methylation of DNA bases; causes gene mutations and CA; IARC: Group 2A"}, {"measurement": "Lowest effective concentration (LOEC) in micronucleus experiments", "setting": "[5]; ref Andreoli et al., 1999", "value": 15.4, "unit": "µg/mL"}, {"measurement": "Lowest effective concentration (LOEC) in micronucleus experiments", "setting": "[5]; ref Fowler et al., 2014", "value": 51.0, "unit": "µg/mL"}]}]}
